Legend:
Details in all cases: 10 μM, 48 hours
IGROV1 = test system: IGROV1
A498 = experiment: NCI screen antiproliferative activity, sulforhodamine B, Renal Cancer panel; type: cell-based, human
Procedure: (§1) The antiproliferative activity of compounds were determined in the National Cancer Institute (NCI) screen (Drug. Dev. Res. 1995, 34, 91-109; J. Natl. Cancer Inst. 1990, 82, 1107-1112; Drug Dev. Res. 1995, 34, 91-109). For certain compounds, cells of approximately 60 different human cancer cell lines were incubated for 48 hours with five 10-fold dilutions of the tested compounds starting from 100 μM and then treated with sulforhodamine B dye. For other compounds, cells of approximately 60 different human cancer cell lines were incubated for 48 hours with a concentration of 10 μM test compound. The ratios of recorded optical densities relative to that of the control were plotted as a function of the common logarithm of the tested compound concentrations or growth percent (for single concentration tests). The interpolation between the points located above and below the 50% percentage growth provided 50% growth inhibition (GI50) values. Total growth inhibition (TGI) and 50% lethal concentrations (LC50) were also calculated using reported methods. A “-” means not tested and/or not-determined.

KM12 = experiment: NCI screen antiproliferative activity, sulforhodamine B, Colon Cancer panel; type: cell-based, human
SK-MEL-28 = test system: SK-MEL-28
SK-OV-3 = test system: SK-OV-3
786-0 = test system: 786-0
SF-539 = test system: SF-539
HS 578T = experiment: NCI screen antiproliferative activity, sulforhodamine B, Breast Cancer panel; type: cell-based, human
NCI-H23 = test system: NCI-H23
CCRF-CEM = experiment: NCI screen antiproliferative activity, sulforhodamine B, Leukemia panel; type: cell-based, human
Procedure: as §1

HL-60(TB) = experiment: as above; type: cell-based, human
Procedure: as §1

HCC-2998 = test system: HCC-2998
ACHN = test system: ACHN
OVCAR-8 = test system: OVCAR-8
OVCAR-3 = test system: OVCAR-3
HOP-92 = test system: HOP-92
MALME-3M = experiment: NCI screen antiproliferative activity, sulforhodamine B, Melanoma panel; type: cell-based, human
UACC-62 = test system: UACC-62
NCI-H460 = test system: NCI-H460
UO-31 = test system: UO-31
MCF7 = test system: MCF7
SNB-19 = test system: SNB-19
LOX IMVI = experiment: NCI screen antiproliferative activity, sulforhodamine B, Melanoma panel; type: cell-based, human
MDA-MB-435 = test system: MDA-MB-435
SW-620 = experiment: NCI screen antiproliferative activity, sulforhodamine B, Colon Cancer panel; type: cell-based, human
M14 = test system: M14
SR = experiment: NCI screen antiproliferative activity, sulforhodamine B, Leukemia panel; type: cell-based, human
A549/ATCC = test system: A549/ATCC
NCI-H522 = test system: NCI-H522
K-562 = experiment: NCI screen antiproliferative activity, sulforhodamine B, Leukemia panel; type: cell-based, human
MDA-MB-231/ATCC = test system: MDA-MB-231/ATCC
MDA-MB-468 = experiment: NCI screen antiproliferative activity, sulforhodamine B, Breast Cancer panel; type: cell-based, human
Procedure: as §1

OVCAR-4 = test system: OVCAR-4
RPMI-8226 = experiment: NCI screen antiproliferative activity, sulforhodamine B, Leukemia panel; type: cell-based, human
NCI/ADR-RES = experiment: NCI screen antiproliferative activity, sulforhodamine B, Ovarian Cancer panel; type: cell-based, human
Procedure: as §1

NCI-H226 = test system: NCI-H226
HCT-116 = test system: HCT-116
HT29 = test system: HT29
SN12C = test system: SN12C
COLO 205 = experiment: NCI screen antiproliferative activity, sulforhodamine B, Colon Cancer panel; type: cell-based, human
HOP-62 = test system: HOP-62
SK-MEL-5 = experiment: NCI screen antiproliferative activity, sulforhodamine B, Melanoma panel; type: cell-based, human
BT-549 = test system: BT-549
CAKI-1 = test system: CAKI-1
DU-145 = test system: DU-145
RXF 393 = test system: RXF 393
SF-268 = test system: SF-268
SNB-75 = test system: SNB-75
NCI-H322M = test system: NCI-H322M
PC-3 = test system: PC-3
MOLT-4 = experiment: NCI screen antiproliferative activity, sulforhodamine B, Leukemia panel; type: cell-based, human
OVCAR-5 = test system: OVCAR-5
T-47D = test system: T-47D
HCT-15 = test system: HCT-15

CCCCCN(CCCCC)CCC[C@@H](C)[C@H]1CC[C@H]2[C@@H]3[C@H](OCCCN)C[C@@H]4C[C@H](OCCCN)CC[C@]4(C)[C@H]3C[C@H](OCCCN)[C@]12C [CSA-90]
Growth Percent (IGROV1): 29.55% | Growth Percent (A498): 92.77% | Growth Percent (KM12): 22.46% | Growth Percent (SK-MEL-28): 27.91% | Growth Percent (SK-OV-3): 93.22% | Growth Percent (786-0): 61.11% | Growth Percent (SF-539): −21.94% | Growth Percent (HS 578T): 66.91% | Growth Percent (NCI-H23): 49.16% | Growth Percent (CCRF-CEM): 15.29% | Growth Percent (HL-60(TB)): −16.84% | Growth Percent (HCC-2998): 59.63% | Growth Percent (ACHN): 54.72% | Growth Percent (OVCAR-8): 55.32% | Growth Percent (OVCAR-3): 107.13% | Growth Percent (HOP-92): 50.03% | Growth Percent (MALME-3M): 62.21% | Growth Percent (UACC-62): 13.55% | Growth Percent (NCI-H460): 45.20% | Growth Percent (UO-31): 65.22% | Growth Percent (MCF7): 74.77% | Growth Percent (SNB-19): 61.03% | Growth Percent (LOX IMVI): 3.00% | Growth Percent (MDA-MB-435): −13.61% | Growth Percent (SW-620): 45.90% | Growth Percent (M14): 42.81% | Growth Percent (SR): 19.21% | Growth Percent (A549/ATCC): 55.21% | Growth Percent (NCI-H522): 28.85% | Growth Percent (K-562): −19.42% | Growth Percent (MDA-MB-231/ATCC): 36.97% | Growth Percent (MDA-MB-468): 71.06% | Growth Percent (OVCAR-4): 85.16% | Growth Percent (RPMI-8226): −17.73% | Growth Percent (NCI/ADR-RES): 76.04% | Growth Percent (NCI-H226): 75.25% | Growth Percent (HCT-116): 22.71% | Growth Percent (HT29): 24.49% | Growth Percent (SN12C): 54.27% | Growth Percent (COLO 205): 52.08% | Growth Percent (HOP-62): 48.28% | Growth Percent (SK-MEL-5): 25.14% | Growth Percent (BT-549): 54.97% | Growth Percent (CAKI-1): 75.81% | Growth Percent (DU-145): 76.50% | Growth Percent (RXF 393): 87.11% | Growth Percent (SF-268): 87.47% | Growth Percent (SNB-75): 70.61% | Growth Percent (NCI-H322M): 24.61% | Growth Percent (PC-3): 80.53% | Growth Percent (MOLT-4): 41.11% | Growth Percent (OVCAR-5): 66.15% | Growth Percent (T-47D): 68.11% | Growth Percent (HCT-15): 72.31%

Source: patent publication US9943529B2, “Methods for reducing cellular proliferation and treating certain diseases” (BRIGHAM YOUNG UNIVERSITY, priority 2013, dated 2018)
